# Measured values: ChEMBL document CHEMBL5291721, “A preclinical secondary pharmacology resource illuminates target-adverse drug reaction associations of marketed drugs” (Nat Commun, 2023)
# Assays:
# [1] = molecular target: cGMP-inhibited 3',5'-cyclic phosphodiesterase 3A (Homo sapiens, UniProt Q14432); type: functional
# Melanocortin receptor 3 = Melanocortin receptor 3 (Homo sapiens, UniProt P41968)
# [2] = molecular target: T1, Alpha-2A adrenergic receptor (Homo sapiens, UniProt P08913); type: functional, cell-based
# T1 sequence (P08913 whole entry): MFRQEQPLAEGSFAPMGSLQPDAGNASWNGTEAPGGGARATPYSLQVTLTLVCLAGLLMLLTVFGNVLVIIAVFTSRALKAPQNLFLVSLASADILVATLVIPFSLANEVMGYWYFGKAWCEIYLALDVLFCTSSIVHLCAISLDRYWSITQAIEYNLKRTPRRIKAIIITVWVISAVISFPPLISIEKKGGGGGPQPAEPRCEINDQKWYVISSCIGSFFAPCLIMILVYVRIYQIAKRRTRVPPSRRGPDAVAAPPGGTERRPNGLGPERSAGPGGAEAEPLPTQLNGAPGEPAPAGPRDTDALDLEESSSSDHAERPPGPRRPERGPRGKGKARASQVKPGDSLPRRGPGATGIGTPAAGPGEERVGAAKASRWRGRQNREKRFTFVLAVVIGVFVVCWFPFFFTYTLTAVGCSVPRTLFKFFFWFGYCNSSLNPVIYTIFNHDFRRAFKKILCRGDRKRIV
# [3] = molecular target: T2, 5-hydroxytryptamine receptor 1A (Homo sapiens, UniProt P08908); type: functional, cell-based
# T2 sequence (P08908 whole entry): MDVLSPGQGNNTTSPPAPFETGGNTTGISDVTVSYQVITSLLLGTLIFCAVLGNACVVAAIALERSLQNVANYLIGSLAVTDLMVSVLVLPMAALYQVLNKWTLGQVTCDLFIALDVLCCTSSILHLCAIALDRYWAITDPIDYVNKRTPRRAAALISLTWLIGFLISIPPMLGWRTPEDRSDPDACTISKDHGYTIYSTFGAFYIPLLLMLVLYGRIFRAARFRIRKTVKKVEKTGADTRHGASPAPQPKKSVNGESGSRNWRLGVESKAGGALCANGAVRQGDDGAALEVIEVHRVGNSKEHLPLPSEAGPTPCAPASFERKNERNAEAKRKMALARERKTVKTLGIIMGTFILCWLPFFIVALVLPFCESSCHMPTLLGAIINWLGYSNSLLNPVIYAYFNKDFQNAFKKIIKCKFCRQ
# Adenosine receptor A3 = molecular target: T3, Adenosine receptor A3 (Homo sapiens, UniProt P0DMS8)
# T3 sequence (P0DMS8 whole entry): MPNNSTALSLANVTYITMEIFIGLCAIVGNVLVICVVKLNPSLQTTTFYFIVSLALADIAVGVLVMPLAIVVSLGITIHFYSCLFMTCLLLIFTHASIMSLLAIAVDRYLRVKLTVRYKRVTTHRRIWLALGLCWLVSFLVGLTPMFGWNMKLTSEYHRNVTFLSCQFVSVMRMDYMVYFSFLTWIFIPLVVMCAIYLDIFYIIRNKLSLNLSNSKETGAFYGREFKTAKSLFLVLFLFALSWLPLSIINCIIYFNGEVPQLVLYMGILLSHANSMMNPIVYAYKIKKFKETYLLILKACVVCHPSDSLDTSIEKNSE
# D(1A) dopamine receptor = D(1A) dopamine receptor (Homo sapiens, UniProt P21728); type: functional, cell-based
# Chain of D(1A) dopamine receptor (P21728 whole entry): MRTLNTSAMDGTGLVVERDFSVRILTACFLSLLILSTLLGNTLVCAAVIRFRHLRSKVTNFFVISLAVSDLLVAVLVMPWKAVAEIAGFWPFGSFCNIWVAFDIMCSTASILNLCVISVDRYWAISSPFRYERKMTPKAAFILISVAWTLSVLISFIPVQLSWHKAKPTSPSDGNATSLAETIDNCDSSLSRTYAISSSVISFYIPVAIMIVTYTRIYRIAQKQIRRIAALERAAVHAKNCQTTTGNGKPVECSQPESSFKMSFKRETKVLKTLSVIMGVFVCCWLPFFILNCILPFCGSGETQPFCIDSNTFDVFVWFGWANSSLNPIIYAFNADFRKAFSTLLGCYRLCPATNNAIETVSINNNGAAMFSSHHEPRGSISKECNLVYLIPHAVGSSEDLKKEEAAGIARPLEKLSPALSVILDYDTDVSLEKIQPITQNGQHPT
# Adenosine receptor A1 = molecular target: T4, Adenosine receptor A1 (Homo sapiens, UniProt P30542)
# T4 sequence (P30542 whole entry): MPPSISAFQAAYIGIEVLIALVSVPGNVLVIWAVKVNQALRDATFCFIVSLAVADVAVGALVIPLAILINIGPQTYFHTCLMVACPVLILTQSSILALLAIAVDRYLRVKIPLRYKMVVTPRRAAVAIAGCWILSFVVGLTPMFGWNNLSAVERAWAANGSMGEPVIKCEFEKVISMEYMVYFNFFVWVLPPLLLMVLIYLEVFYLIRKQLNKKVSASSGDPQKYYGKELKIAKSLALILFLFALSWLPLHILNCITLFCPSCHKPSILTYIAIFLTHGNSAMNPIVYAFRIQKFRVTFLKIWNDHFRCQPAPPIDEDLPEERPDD
# [4] = molecular target: T5, Muscarinic acetylcholine receptor M1 (Homo sapiens, UniProt P11229); type: functional
# T5 sequence (P11229 whole entry): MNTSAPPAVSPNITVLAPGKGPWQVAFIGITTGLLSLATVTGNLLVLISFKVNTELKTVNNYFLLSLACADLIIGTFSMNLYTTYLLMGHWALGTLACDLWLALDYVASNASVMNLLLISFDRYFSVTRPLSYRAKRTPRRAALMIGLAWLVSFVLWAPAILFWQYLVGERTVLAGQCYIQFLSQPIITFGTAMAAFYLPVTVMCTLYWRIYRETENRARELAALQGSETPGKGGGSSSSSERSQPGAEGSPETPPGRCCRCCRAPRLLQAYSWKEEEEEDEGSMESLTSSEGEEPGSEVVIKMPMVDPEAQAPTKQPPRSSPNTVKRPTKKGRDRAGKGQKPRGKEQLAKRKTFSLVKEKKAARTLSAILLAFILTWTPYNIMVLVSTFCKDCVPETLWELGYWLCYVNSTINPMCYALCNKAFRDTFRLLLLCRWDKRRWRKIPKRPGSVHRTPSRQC
# Note: assay procedure not described here.
# Chain of Melanocortin receptor 3 (P41968 whole entry): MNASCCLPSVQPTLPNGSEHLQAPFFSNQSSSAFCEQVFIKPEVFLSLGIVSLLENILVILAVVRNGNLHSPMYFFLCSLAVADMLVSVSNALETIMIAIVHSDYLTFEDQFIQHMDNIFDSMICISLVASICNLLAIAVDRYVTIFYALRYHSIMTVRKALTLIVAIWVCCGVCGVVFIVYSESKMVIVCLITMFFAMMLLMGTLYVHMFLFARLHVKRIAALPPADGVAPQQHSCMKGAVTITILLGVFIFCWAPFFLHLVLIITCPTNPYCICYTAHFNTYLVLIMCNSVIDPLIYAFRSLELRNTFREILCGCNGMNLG
# Chain of cGMP-inhibited 3',5'-cyclic phosphodiesterase 3A (Q14432 whole entry): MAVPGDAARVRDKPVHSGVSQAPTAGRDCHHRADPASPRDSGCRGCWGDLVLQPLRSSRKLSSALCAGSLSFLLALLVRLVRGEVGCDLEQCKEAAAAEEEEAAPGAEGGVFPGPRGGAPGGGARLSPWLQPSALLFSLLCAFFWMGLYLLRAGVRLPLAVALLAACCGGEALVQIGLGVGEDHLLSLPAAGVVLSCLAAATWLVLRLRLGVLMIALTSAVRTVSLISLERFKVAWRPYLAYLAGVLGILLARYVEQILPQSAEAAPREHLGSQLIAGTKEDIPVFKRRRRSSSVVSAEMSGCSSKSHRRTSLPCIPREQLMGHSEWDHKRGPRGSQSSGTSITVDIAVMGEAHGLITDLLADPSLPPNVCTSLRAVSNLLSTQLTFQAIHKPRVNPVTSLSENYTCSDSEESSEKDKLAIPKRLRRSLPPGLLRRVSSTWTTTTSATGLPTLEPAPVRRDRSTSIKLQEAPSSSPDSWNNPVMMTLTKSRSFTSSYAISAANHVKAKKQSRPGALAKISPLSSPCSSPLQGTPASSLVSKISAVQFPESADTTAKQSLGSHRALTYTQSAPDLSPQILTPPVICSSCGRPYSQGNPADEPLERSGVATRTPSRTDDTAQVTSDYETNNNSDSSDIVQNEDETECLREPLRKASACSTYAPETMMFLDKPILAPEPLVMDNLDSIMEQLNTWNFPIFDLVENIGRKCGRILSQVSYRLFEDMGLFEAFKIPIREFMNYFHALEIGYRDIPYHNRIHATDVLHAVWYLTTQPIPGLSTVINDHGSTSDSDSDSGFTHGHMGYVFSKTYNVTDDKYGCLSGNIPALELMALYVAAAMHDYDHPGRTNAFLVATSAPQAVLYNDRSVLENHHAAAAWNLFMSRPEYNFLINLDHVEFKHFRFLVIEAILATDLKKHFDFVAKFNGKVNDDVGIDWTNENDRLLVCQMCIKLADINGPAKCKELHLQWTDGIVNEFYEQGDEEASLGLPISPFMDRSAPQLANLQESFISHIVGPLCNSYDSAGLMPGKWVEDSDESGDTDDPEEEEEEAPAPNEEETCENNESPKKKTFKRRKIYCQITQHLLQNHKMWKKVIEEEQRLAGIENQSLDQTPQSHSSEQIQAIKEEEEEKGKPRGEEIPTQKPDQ
smiles,measurement,setting,value
O=C1Nc2ccc(Cl)cc2C(c2ccccc2)=NC1O (configuration not stated) [OXAZEPAM],AC50,[1],> 30 µM
same,AC50,Melanocortin receptor 3,> 30 µM
same,AC50,[2],> 10 µM
same,AC50,[3],> 10 µM
same,AC50,Adenosine receptor A3,> 30 µM
same,AC50,D(1A) dopamine receptor,> 10 µM
same,AC50,Adenosine receptor A1,> 30 µM
same,AC50,[4],> 10 µM
CCN(CC)C(=O)C1CN2CCc3cc(OC)c(OC)cc3C2CC1OC(C)=O (configuration not stated) [BENZQUINAMIDE],AC50,[1],> 30 µM
same,AC50,Melanocortin receptor 3,> 30 µM
same,AC50,[2],0.735 µM
same,AC50,[3],> 30 µM
same,AC50,Adenosine receptor A3,> 30 µM
same,AC50,D(1A) dopamine receptor,> 30 µM
same,AC50,Adenosine receptor A1,> 30 µM
same,AC50,[4],> 30 µM
CO[C@@]1(NC(=O)Cc2cccs2)C(=O)N2C(C(=O)O)=C(COC(N)=O)CS[C@@H]21 [CEFOXITIN],AC50,[1],> 30 µM
same,AC50,Melanocortin receptor 3,> 30 µM
same,AC50,[2],> 30 µM
same,AC50,[3],> 30 µM
same,AC50,Adenosine receptor A3,> 30 µM
same,AC50,D(1A) dopamine receptor,> 30 µM
same,AC50,Adenosine receptor A1,> 30 µM
same,AC50,[4],> 30 µM
CCCCC[C@H](O)/C=C/[C@H]1[C@H](O)CC(=O)[C@@H]1C/C=C\CCCC(=O)O [DINOPROSTONE],AC50,[1],> 30 µM
same,AC50,Melanocortin receptor 3,> 30 µM
same,AC50,[2],> 30 µM
same,AC50,[3],> 30 µM
same,AC50,Adenosine receptor A3,> 30 µM
same,AC50,D(1A) dopamine receptor,> 30 µM
same,AC50,Adenosine receptor A1,> 30 µM
same,AC50,[4],> 30 µM
CN(c1nccc(=O)[nH]1)C1CCN(c2nc3ccccc3n2Cc2ccc(F)cc2)CC1 [MIZOLASTINE],AC50,[1],6.1 µM
same,AC50,Melanocortin receptor 3,> 30 µM
same,AC50,[2],23 µM
same,AC50,[3],> 30 µM
same,AC50,Adenosine receptor A3,> 30 µM
same,AC50,D(1A) dopamine receptor,> 30 µM
same,AC50,Adenosine receptor A1,> 30 µM
same,AC50,[4],0.011 µM
CCN(CC)CC(=O)Oc1ccc(NC(C)=O)cc1 [PROPACETAMOL],AC50,[1],> 30 µM
same,AC50,Melanocortin receptor 3,> 30 µM
same,AC50,[2],> 30 µM
same,AC50,[3],> 30 µM
same,AC50,Adenosine receptor A3,> 30 µM
same,AC50,D(1A) dopamine receptor,> 30 µM
same,AC50,Adenosine receptor A1,> 30 µM
same,AC50,[4],> 30 µM
NC(=O)CCC/N=C(\c1ccc(Cl)cc1)c1cc(F)ccc1O [PROGABIDE],AC50,[1],> 30 µM
same,AC50,Melanocortin receptor 3,> 10 µM
same,AC50,[2],> 10 µM
same,AC50,[3],> 10 µM
same,AC50,Adenosine receptor A3,> 10 µM
same,AC50,D(1A) dopamine receptor,> 10 µM
same,AC50,Adenosine receptor A1,> 10 µM
same,AC50,[4],> 10 µM
CCCC(C)(COC(N)=O)COC(=O)NC(C)C (configuration not stated) [CARISOPRODOL],AC50,[1],> 30 µM
same,AC50,Melanocortin receptor 3,> 30 µM
same,AC50,[2],> 10 µM
same,AC50,[3],> 10 µM
same,AC50,Adenosine receptor A3,> 30 µM
same,AC50,D(1A) dopamine receptor,> 10 µM
same,AC50,Adenosine receptor A1,> 30 µM
same,AC50,[4],> 10 µM
O=C(CCCN1CCC(n2c(O)nc3ccccc32)CC1)c1ccc(F)cc1 [BENPERIDOL],AC50,[1],> 30 µM
same,AC50,Melanocortin receptor 3,> 30 µM
same,AC50,[2],19.2 µM
same,AC50,[3],> 30 µM
same,AC50,Adenosine receptor A3,> 30 µM
same,AC50,D(1A) dopamine receptor,> 30 µM
same,AC50,Adenosine receptor A1,> 30 µM
same,AC50,[4],13 µM
C#C[C@]1(O)CC[C@H]2[C@@H]3CCC4=CC(=O)CCC4=C3C=C[C@@]21CC [GESTRINONE],AC50,[1],2.9 µM
same,AC50,Melanocortin receptor 3,> 30 µM
same,AC50,[2],11 µM
same,AC50,[3],> 30 µM
same,AC50,Adenosine receptor A3,22 µM
same,AC50,D(1A) dopamine receptor,> 30 µM
same,AC50,Adenosine receptor A1,> 30 µM
same,AC50,[4],> 30 µM
CC1(C)C(C=C(Cl)Cl)C1C(=O)OCc1cccc(Oc2ccccc2)c1 (configuration not stated) [PERMETHRIN],AC50,[1],> 30 µM
same,AC50,Melanocortin receptor 3,> 10 µM
same,AC50,[2],9.7 µM
same,AC50,[3],> 10 µM
same,AC50,Adenosine receptor A3,> 10 µM
same,AC50,D(1A) dopamine receptor,> 10 µM
same,AC50,Adenosine receptor A1,> 10 µM
same,AC50,[4],> 10 µM
CC(NCCc1ccc(O)cc1)C(O)c1ccc(O)cc1 (configuration not stated) [RITODRINE],AC50,[1],> 30 µM
same,AC50,Melanocortin receptor 3,> 30 µM
same,AC50,[2],> 30 µM
same,AC50,[3],> 30 µM
same,AC50,Adenosine receptor A3,> 30 µM
same,AC50,D(1A) dopamine receptor,> 10 µM
same,AC50,Adenosine receptor A1,> 30 µM
same,AC50,[4],> 30 µM
CC(=O)Nc1c(I)c(C(=O)N[C@H]2C(O)O[C@H](CO)[C@@H](O)[C@@H]2O)c(I)c(N(C)C(C)=O)c1I (some centres not stated) [METRIZAMIDE],AC50,[1],> 30 µM
same,AC50,Melanocortin receptor 3,> 10 µM
same,AC50,[2],> 10 µM
same,AC50,[3],> 10 µM
same,AC50,Adenosine receptor A3,> 10 µM
same,AC50,D(1A) dopamine receptor,> 10 µM
same,AC50,Adenosine receptor A1,> 10 µM
same,AC50,[4],> 10 µM
CC[N+]1(C)CCCC(OC(=O)C(O)(c2ccccc2)c2ccccc2)C1 (configuration not stated) [PIPENZOLATE],AC50,[1],> 30 µM
same,AC50,Melanocortin receptor 3,> 30 µM
same,AC50,[2],> 30 µM
same,AC50,[3],> 30 µM
same,AC50,Adenosine receptor A3,> 30 µM
same,AC50,D(1A) dopamine receptor,> 30 µM
same,AC50,Adenosine receptor A1,> 30 µM
same,AC50,[4],0.023 µM
